Measurements: patent US5298652A, “N-substituted glycines, inhibitors of phospholipase A2” (Hoffmann-La Roche Inc., priority 1992, dated 1994)
Read-outs that look alike come from different tables or passages of the source.

Legend:
[1] = test system: croton oil-induced mouse ear edema; experiment: Croton oil mouse ear edema test; assay type: in vivo, male CD-1 mice; settings: 1 mg topical, coapplied with croton oil; ear punch weight at 6 hours
Protocol: Croton Oil Mouse Ear Edema Test
The croton oil-induced mouse ear edema test, a model of irritant-induced contact dermatitis, has been used for evaluation of the PLA2 inhibitors by the topical route of administration. This test was carried out as described in the following references: […]
Twenty five μl of a 1% croton oil solution [dissolved in a mixture of pyridine/water/diethyl ether at a ratio of 5/20/75 (croton oil vehicle)] are applied to the outer side of the right ear of 3-4 week old male CD-1 mice (8 animals per group). The test compounds are dissolved directly in the 1% croton oil solution at various concentrations and coapplied. Control animals receive 25 μl of croton oil vehicle on the right ear. Biopsy punches are removed at 6 hours from the right ear of the animals using a 6 mm skin trephine (Roboz, Washington, D.C.) and the wet weight of the ear punches is determined. The weight of the biopsy punches is a measure of ear inflammation, primarily edema. The data are expressed as percent inhibition relative to control groups.
Statistical analysis of the mean edema values of the control versus the treated groups is performed using Student's t-test. The significance of changes from mean value for vehicle-treated animals is as follows (*p<0.05, **p<0.01, ***p<0.005, ns/not significant).

[2] = molecular target: T1, HSF-PLA2 (extracellular PLA2 obtained from human synovial fluid) (Homo sapiens, UniProt P14555); experiment: Assay for inhibition of HSF-PLA2 in vitro; assay type: biochemical; settings: 5.8 μM test compound; read-out: % Inhib of HSF-PLA2
T1 construct: extracellular enzyme obtained from human synovial fluid; from tissue; host or cells: human synovial fluid (pooled)
T1 sequence (P14555 21-144): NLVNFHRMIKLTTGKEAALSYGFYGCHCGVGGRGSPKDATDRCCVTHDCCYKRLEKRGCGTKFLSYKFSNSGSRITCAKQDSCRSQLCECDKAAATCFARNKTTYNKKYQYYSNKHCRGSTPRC
Protocol: Assay for Inhibition of HSF-PLA2 In Vitro
The PLA2 used in this test is the extracellular enzyme obtained from human synovial fluid (HSF-PLA2).
The assay for HSF-PLA2 activity was a modification of the described method [Franson R., Dobrow R., Weiss, J., Elsbach P., and Weglick W. B., J. Lipid Res., 19, 18-23 (1978)] which was conducted using [1-^14 C]-oleate-labelled E. coli substrate in excess at a final concentration of 20,000 dpm/ml. This was equivalent to 18.2 mM of cell membrane phospholipid phosphorus and 2×10^9 autoclaved E. coli/ml. The optimal conditions which were developed for the assay of HSF-PLA2 inhibitors are summarized as follows. A total volume of 0.5 ml of reaction mixture typically had the following final composition: substrate (20,000 dpm/ml); enzyme (0.1% HSF, v/v); 2 mM CaCl2; 150 mM Na^+; 50 mM sodium HEPES buffer, pH 7.3; and 1% dimethyl sulfoxide (DMSO, used to solubilize test inhibitors) in the presence or absence of inhibitor. The reaction was initiated by the addition of HSF-PLA2 and duplicate samples of the mixture were incubated in 13×100 mm glass tubes with shaking for 30 minutes at 37° C. The reaction was terminated by the addition of 2.5 ml of chloroform-methanol (1 to 1.5, v/v). The extraction of lipids from the stopped reaction mixture was conducted by the further additions of 0.5 ml of chloroform and 1 ml of water with mixing. After centrifuging, the lower chloroform phase was transferred to smaller glass tubes and the solvent was evaporated to dryness with a nitrogen stream. The extracted lipid residue was redissolved in […] of a solution containing carrier oleic acid (0.2 mg/ml) in chloroform-methanol [9 to 1, v/v]). The whole lipid extract was applied to a preactivated (30 minutes at 110° C.) silica gel-impregnated glass fiber thin layer chromatography sheet (ITLC type SG sheet from Gelman Sciences Inc., Ann Arbor, Mich.) using hexane-acetic acid (100 to 1, v/v) as the developing solvent. This TLC system rapidly (6 minutes) resolved the enzymatically released product, ^14 C-oleic acid, from the unreacted ^14 C-phospholipid substrate. The unsaturated lipids were located on the chromatogram by a brief exposure to iodine vapor. The oleic acid zone (Rf value 0.95) and phospholipid zone (origin) were cut out, chopped into small pieces, shaken with 2 ml of ethanol-water (80 to 20, v/v) and 15 ml of Aquasol and counted for radio-activity. A control incubation of substrate in the absence of HSF-PLA2 was performed in each experiment. The PLA2 activity of the human synovial fluid was corrected for this small control value. […] The specific activity of PLA2 in the pooled human synovial fluid under the optimal assay conditions was 49.2 nmoles [1-^14 C]-oleic aid released hour^-1 mg^-1. The IC50 (μM concentration of test compound that produces 50% inhibition of PLA2 activity) was determined for each test compound.

[3] = test system: adjuvant arthritis induced by Freunds complete adjuvant
Protocol: Representative compounds of the invention were tested in the standard adjuvant arthritis model in rats, induced by Freunds complete adjuvant, as described by C.

[4] = test system: acetic acid-induced colitis (colonic mucosa myeloperoxidase); experiment: Acetic acid-induced colitis in rats; assay type: in vivo, male rats (Sprague-Dawley); settings: 10 mg/kg po
Excerpt: Acetic Acid-Induced Colitis in Rats
The rat acetic acid-induced colitis bioassay has been described by J. E. Krawisz, et al. in Amer. J. Proc. Gastro. Col. Rec. Surg. 31, 11-18 (1980), and by P. Sharon and W. F. Stenson in Gastroenterology 88, 55-63 (1985) and 86, 453-460 (1984). Acetic acid-induced colitis is characterized by the movement of inflammatory cells into the colon, with the number of such cells in the mucosa being measured by the activity of myeloperoxidase, a marker enzyme for these cells. Positive desirable activity is indicated by a reduction in the high levels of myeloperoxidase caused by acetic acid. Male rats (Sprague-Dawley), weighing 150 to 300 g, were pretreated twice daily for two days with either the vehicle (water or dimethylsulfoxide) or the test inhibitor compound suspended in water or dissolved in dimethylsulfoxide and orally administered. […] The colonic mucosa was surgically removed and homogenized in an aqueous buffer at pH 6 with a Tissumizer or similar device and myeloperoxidase was measured in the homogenate using o-phenyl enediamine as a chromagen, as described by A. Voller, D. E. Bidwell and A. Bartlett in "The Enzyme Linked Immunosorbent Assay (ELISA)", Zoological Soc., London, 1979, pages 29-30. […]

[5] = test system: carrageenan-induced paw edema; experiment: Rat carrageenan paw edema; assay type: in vivo, Lewis rats; settings: 30 mg/kg ip, 1 hr prior to carrageenan
Protocol: Rat Carrageenan Paw Edema
Representative compounds of the invention were tested in rat carrageenan-induced paw edema to determine their ability to inhibit this acute inflammatory response. Test compounds were administered intraperitoneally or orally to groups of seven Lewis rats (~200 gm) 1 hr prior to carrageenan administration. The test compounds were dissolved in dimethyl sulfoxide for intraperitoneal administration and dissolved or suspended in Labrafil […] for oral administration. At 0 hour, 0.1 mL of 1% carrageenan dissolved in pyrogen free […] was injected subplanetary into the right hind paw to elicit the inflammatory response. The volume (in mL) of the right hind paw was measured by immersion of the paw to the level of the lateral malleolus in an aqueous plethysmometer immediately prior to the injection of carrageenan and then at 1, 2 and 4 hr after carrageenan injection. The paw edema was calculated by subtracting the zero time reading from the readings taken after injection. The percent change of the edema volume from the vehicle treated control was calculated to determine the activity of the test compound. Statistical analysis of the mean paw edema values of the control versus the treated groups was performed using Student's t-test.

Compound	% Inhib of Croton Oil Mouse Ear Edema (1 mg) [1] [%]	inhibition at 5.8 µM [2] [%]	Change in Paw Volume in ml, Treated ([3]; dose 10 mg/kp ip) [mL]	% Inhib of Myeloperoxidase Accumulation [4] [%]	% Inhib of Carrageenan Paw Edema 2 hr 30 mg/kg ip [5] [%]	Change in Paw Volume in ml, Treated ([3]; dose 30 mg/kp ip) [mL]
CCCCCCCCCCCCCCCCCCOc1cccc(C(=O)N(CC(=O)O)CC(=O)O)c1 [Example 4, N-(Carboxymethyl)-N-[3-(octadecyloxy)benzoyl]glycine]	17	50	-0.14 ± 0.06	112 ± 53	50	
CCCCCCCCCCCCCCCCCCOc1ccc(O)c(C(=O)N(CC(=O)O)CC(=O)O)c1 [Example 62, N-(carboxymethyl)-N-[2-hydroxy-5-(octadecyloxy)benzoyl]glycine]	65	50			57	-0.11 ± 0.06
